Earlier results in US6027728A, “Herbal skin regeneration composition and method” (priority 1998, dated 2000).

System: Na+,K(+)-ATPase
Settings: not given

Row | Structure (SMILES) | inhibition of Na+,K(+)-ATPase activity (in words)
1 | C[C@@]12C[C@@]3(O)O[C@@H](O1)[C@]1(COC(=O)c4ccc(O)cc4)[C@H]3C[C@@]12O[C@@H]1O[C@H](CO)[C@@H](O)[C@H](O)[C@H]1O [oxypaeoniflorin] | ineffective
2 | O=C(O)c1ccccc1 [benzoic acid] | weakly inhibitory
3 | COc1ccc(C(C)=O)c(O)c1 [paconol] | ineffective
4 | Oc1ccccc1 [phenol] | ineffective
5 | C[C@@]12C[C@@]3(O)O[C@@H](O1)[C@]1(COC(=O)c4ccccc4)[C@H]3C[C@@]12O[C@@H]1O[C@H](COC(=O)c2cc(O)c(O)c(O)c2)[C@@H](O)[C@H](O)[C@H]1O [galloylpaeoniflorin] | weakly inhibitory
6 | C[C@@]12C[C@@]3(O)O[C@@H](O1)[C@]1(COC(=O)c4ccccc4)[C@H]3C[C@@]12O[C@@H]1O[C@H](CO)[C@@H](O)[C@H](O)[C@H]1O [paeoniflorin] | ineffective
7 | C[C@]12C[C@@H](O)[C@@H]3C[C@@]1(O[C@@H]1O[C@H](CO)[C@@H](O)[C@H](O)[C@H]1O)[C@@]3(COC(=O)c1ccccc1)C(=O)O2 [albiflorin] | ineffective
8 | Oc1cc(O)c2c(c1)OC(c1ccc(O)c(O)c1)C(O)C2 (stereo not drawn) [catechin] | weakly inhibitory

Same assay, conditions: with respect to ATP

Row | Structure (SMILES) | inhibition mode with respect to ATP
9 | O=C(OC[C@H]1O[C@@H](OC(=O)c2cc(O)c(O)c(O)c2)[C@H](OC(=O)c2cc(O)c(O)c(O)c2)[C@@H](OC(=O)c2cc(O)c(O)c(O)c2)[C@@H]1OC(=O)c1cc(O)c(O)c(O)c1)c1cc(O)c(O)c(O)c1 [PGG, 1,2,3,4,6-Penta-O-galloyl-beta-D-glucose] | noncompetitive
